# Key:
# [1] = target: GDP-bound NRAS wild-type protein (Homo sapiens, UniProt P01111); test: Binding to NRAS by surface plasmon resonance (SPR), Single Cycle Kinetics; conditions: for NRAS/KRAS (ratio of KD value with respect to GDP-bound NRAS wild-type protein to KD value with respect to KRAS): SPR KD ratio NRAS/KRAS, class symbols
# [2] = target: GDP-bound HRAS wild-type protein (Homo sapiens, UniProt P01112); test: Binding to HRAS by surface plasmon resonance (SPR), Single Cycle Kinetics; conditions: for HRAS/KRAS (ratio of KD value with respect to GDP-bound HRAS wild-type protein to KD value with respect to KRAS): SPR KD ratio HRAS/KRAS, class symbols
# [3] = SPR, GDP-bound NRAS wild-type protein vs GDP-bound KRAS wild-type protein
# [4] = SPR, GDP-bound HRAS wild-type protein vs GDP-bound KRAS wild-type protein
# [5] = SPR, GDP-bound NRAS wild-type protein vs GDP-bound KRAS wild-type protein, KD ratio class
# [6] = SPR, GDP-bound HRAS wild-type protein vs GDP-bound KRAS wild-type protein, KD ratio class
# Chain of GDP-bound NRAS wild-type protein (P01111 whole entry): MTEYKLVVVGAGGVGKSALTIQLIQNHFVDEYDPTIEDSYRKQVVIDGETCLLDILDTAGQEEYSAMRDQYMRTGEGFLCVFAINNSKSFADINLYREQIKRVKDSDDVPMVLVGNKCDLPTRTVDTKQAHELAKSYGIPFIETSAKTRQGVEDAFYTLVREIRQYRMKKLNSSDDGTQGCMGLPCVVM
# Chain of GDP-bound HRAS wild-type protein (P01112 whole entry): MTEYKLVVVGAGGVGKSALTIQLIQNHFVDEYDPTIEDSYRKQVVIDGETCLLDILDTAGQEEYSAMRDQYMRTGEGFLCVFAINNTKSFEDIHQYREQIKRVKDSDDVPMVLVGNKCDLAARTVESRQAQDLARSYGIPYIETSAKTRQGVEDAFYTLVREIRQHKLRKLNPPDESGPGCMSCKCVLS
Compound,NRAS/KRAS (ratio of KD value with respect to GDP-bound NRAS wild-type protein to KD value with respect to KRAS) [1],HRAS/KRAS (ratio of KD value with respect to GDP-bound HRAS wild-type protein to KD value with respect to KRAS) [2],"NRAS/KRAS (ratio of KD value for NRAS to KD value for KRAS) [1, 3]","HRAS/KRAS (ratio of KD value for HRAS to KD value for KRAS) [2, 4]",also measured
CCC(CC)[C@H]1C(=O)N(C)[C@H](C(=O)N(C)C)CC(=O)N(C)[C@@H](COC)C(=O)N[C@@H]([C@@H](C)CC)C(=O)N(C)CC(=O)N(C)[C@H]2C/C=C\CCN(C2=O)[C@@H](Cc2ccc(C)cc2)C(=O)N(C)CC(=O)N[C@@H](CCc2ccc(C(F)(F)F)c(OC)c2)C(=O)N2CCCCC[C@H]2C(=O)NC2(CC(C)(C)C2)C(=O)N1C [PP2970],A (a compound having 10 or more and less than 20 is denoted as A),A (a compound having 10 or more and less than 20 is denoted as A),,,
CCC[C@H]1C(=O)N[C@@H]([C@@H](C)CC)C(=O)N(CCC)CC(=O)N(C)[C@H]2C/C=C\CCN(C2=O)[C@@H](Cc2ccc(C)cc2)C(=O)N(C)CC(=O)N[C@@H](CCc2ccc(C(F)(F)F)c(OC)c2)C(=O)N2C[C@H](OCC)C[C@H]2C(=O)NC2(CC(C)(C)C2)C(=O)N(C)[C@@H](C2CCCC2)C(=O)N(C)[C@H](C(=O)N(C)C)CC(=O)N1C [PP2054],,,A (a compound having 10 or more and less than 20 is denoted as A),A (a compound having 10 or more and less than 20 is denoted as A),
CCC[C@H]1C(=O)N[C@@H](C2CCCC2)C(=O)N(C)CC(=O)N(C)[C@H]2C/C=C\CCN(C2=O)[C@@H](Cc2ccc(C)cc2)C(=O)N(C)CC(=O)N[C@@H](CCc2ccc(C(F)(F)F)c(OC)c2)C(=O)N2CC3(CC3)C[C@H]2C(=O)NC2(CC(C)(C)C2)C(=O)N(C)[C@@H](CC(C)(C)C)C(=O)N(C)[C@H](C(=O)N(C)C)CC(=O)N1C [PP3010],,,B (a compound having 3 or more and less than 10 is denoted as B),B (a compound having 3 or more and less than 10 is denoted as B),
CC[C@H](C)[C@@H]1NC(=O)[C@H](CC(C)C)N(C)C(=O)C[C@@H](C(=O)N2CCOCC2)N(C)C(=O)[C@H](C2CCCC2)N(C)C(=O)C2(CCC2)NC(=O)[C@@H]2C[C@@H](OCC3CC3)CN2C(=O)[C@H](CCc2cc(F)c(C(F)(F)F)c(F)c2)NC(=O)CN(C)C(=O)[C@H](Cc2ccc(C(F)(F)F)cc2)N2CCCC[C@@H](C2=O)N(C)C(=O)CN(C)C1=O [PP1014],,,C (A compound having a KD ratio of 0.1 or more and less than 3 is denoted as C),C (A compound having a KD ratio of 0.1 or more and less than 3 is denoted as C),
CCO[C@@H]1C[C@H]2C(=O)NC3(CCCC3)C(=O)N(C)[C@@H](C3CCCC3)C(=O)N(C)[C@H](C(=O)N3CCOCC3)CC(=O)N(C)[C@@H](CC(C)C)C(=O)N[C@@H]([C@@H](C)CC)C(=O)N(C)CC(=O)N(C)[C@H]3CCCCCN(C3=O)[C@@H](Cc3ccc(F)cc3)C(=O)N(C)CC(=O)N[C@@H](CCc3ccc(C(F)(F)F)c(Cl)c3)C(=O)N2C1 [PP0965],,,B (a compound having 3 or more and less than 10 is denoted as B),B (a compound having 3 or more and less than 10 is denoted as B),
CC[C@H](C)[C@@H]1NC(=O)[C@H](CC(C)C)N(C)C(=O)C[C@@H](C(=O)N(C)C)N(C)C(=O)[C@H](C2CCCC2)N(C)C(=O)C2(CCCC2)NC(=O)[C@@H]2CCCN2C(=O)[C@H](CCc2ccc(C(F)(F)F)c(Cl)c2)NC(=O)CN(C)C(=O)[C@H](Cc2ccc(C(F)(F)F)cc2)N2CC=CCOC[C@H](C2=O)N(C)C(=O)CN(C)C1=O [PP0628],,,,,"NRAS/KRAS (ratio of KD value with respect to NRAS to KD value with respect to KRAS) [1, 3]: C (A compound having a KD ratio of 0.1 or more and less than 3 is denoted as C); HRAS/KRAS (ratio of KD value with respect to HRAS to KD value with respect to KRAS) [2, 4]: C (A compound having a KD ratio of 0.1 or more and less than 3 is denoted as C)"
CCC[C@H]1C(=O)N[C@@H]([C@@H](C)CC)C(=O)N(C)CC(=O)N(C)[C@H]2C/C=C\CCN(C2=O)[C@@H](Cc2ccc(C)cc2)C(=O)N(C)CC(=O)N[C@@H](CCc2ccc3sc(C)c(C)c3c2)C(=O)N2C[C@H](OCC)C[C@H]2C(=O)NC2(CC(C)(C)C2)C(=O)N(C)[C@@H](C2CCCC2)C(=O)N(C)[C@H](C(=O)N(C)C)CC(=O)N1C [PP2891],A (a compound having 10 or more and less than 20 is denoted as A),B (a compound having 3 or more and less than 10 is denoted as B),,,
CCCOC[C@H]1C(=O)N[C@@H]([C@@H](C)CC)C(=O)N(C)CC(=O)N(C)[C@H]2C/C=C\CCN(C2=O)[C@@H](Cc2ccc(C)cc2)C(=O)N(C)CC(=O)N[C@@H](CCc2cc(F)c(C(F)(F)F)c(F)c2)C(=O)N2C[C@H](OCC)C[C@H]2C(=O)NC2(CC(C)(C)C2)C(=O)N(C)[C@@H](C2CCCC2)C(=O)N(C)[C@H](C(=O)N(C)CC)CC(=O)N1C [PP1577],,,,,"NRAS/KRAS (ratio of KD value for NRAS to KD value for KRAS) [1, 5]: B (a compound having 3 or more and less than 10 is denoted as B); HRAS/KRAS (ratio of KD value for HRAS to KD value for KRAS) [2, 6]: B (a compound having 3 or more and less than 10 is denoted as B)"
CCC[C@H]1C(=O)N[C@@H]([C@@H](C)CC)C(=O)N(C2CC2)CC(=O)N(C)[C@H]2C/C=C\CCN(C2=O)[C@@H](Cc2ccc(C)cc2)C(=O)N(C)CC(=O)N[C@@H](CCc2ccc(C3CC3)c(C)c2)C(=O)N2C[C@H](OCC)C[C@H]2C(=O)NC2(CC(C)(C)C2)C(=O)N(C)[C@@H](C2CCCC2)C(=O)N(C)[C@H](C(=O)N(C)C)CC(=O)N1C [PP2886],A (a compound having 10 or more and less than 20 is denoted as A),A (a compound having 10 or more and less than 20 is denoted as A),,,
CCC[C@H]1C(=O)N[C@@H]([C@@H](C)CC)C(=O)N(C2CC2)CC(=O)N(C)[C@H]2C/C=C\CCN(C2=O)[C@@H](Cc2ccc(C)cc2)C(=O)N(C)CC(=O)N[C@@H](CCc2cc(F)c3c(c2)CCC3)C(=O)N2C[C@H](OCC)C[C@H]2C(=O)NC2(CC(C)(C)C2)C(=O)N(C)[C@@H](C2CCCC2)C(=O)N(C)[C@H](C(=O)N(C)C)CC(=O)N1C [PP2879],A (a compound having 10 or more and less than 20 is denoted as A),A (a compound having 10 or more and less than 20 is denoted as A),,,
CCO[C@@H]1C[C@H]2C(=O)NC3(CCC3)C(=O)N(C)[C@@H](C3CCCC3)C(=O)N(C)[C@H](C)CC(=O)N(C)[C@@H](CC3CCCC3)C(=O)N[C@@H]([C@@H](C)CC)C(=O)N(C)CC(=O)N(C)[C@H]3C/C=C\CCN(C3=O)[C@@H](Cc3ccc(F)cc3)C(=O)N(C)CC(=O)N[C@@H](CCc3cc(F)c(C(F)(F)F)c(F)c3)C(=O)N2C1 [PP1492],,,,,"NRAS/KRAS (ratio of KD value for NRAS to KD value for KRAS) [1, 5]: B (a compound having 3 or more and less than 10 is denoted as B); HRAS/KRAS (ratio of KD value for HRAS to KD value for KRAS) [2, 6]: B (a compound having 3 or more and less than 10 is denoted as B)"
CCC(CC)[C@H]1C(=O)N(C)[C@H](C(=O)N(C)C)CC(=O)N(C)[C@@H](COC)C(=O)N[C@@H]([C@@H](C)CC)C(=O)N(C)CC(=O)N(C)[C@H]2C/C=C\CCN(C2=O)[C@@H](Cc2ccc(C)cc2)C(=O)N(C)CC(=O)N[C@@H](CCc2ccc(C(F)(F)F)c(Cl)c2)C(=O)N2CCCCC[C@H]2C(=O)NC2(CC(C)(C)C2)C(=O)N1C [PP2966],A (a compound having 10 or more and less than 20 is denoted as A),A (a compound having 10 or more and less than 20 is denoted as A),,,
CCO[C@@H]1C[C@H]2C(=O)NC3(CC(C)(C)C3)C(=O)N(C)[C@@H](C(CC)CC)C(=O)N(C)[C@H](C(=O)N3CCCC3)CC(=O)N(C)[C@@H](COC)C(=O)N[C@@H]([C@@H](C)CC)C(=O)N(C)CC(=O)N(C)[C@H]3C/C=C\CCN(C3=O)[C@@H](Cc3ccc(C)cc3)C(=O)N(C)CC(=O)N[C@@H](CCc3cc(F)c(C(F)(F)F)c(F)c3)C(=O)N2C1 [PP2139],,,AA (a compound having 20 or more is denoted as AA),A (a compound having 10 or more and less than 20 is denoted as A),
CCOC[C@H]1C(=O)N[C@@H]([C@@H](C)CC)C(=O)N(C)CC(=O)N(C)[C@H]2C/C=C\CCN(C2=O)[C@@H](Cc2ccc(C(C)C)cc2)C(=O)N(C)CC(=O)N[C@@H](CCc2ccc(C(F)(F)F)c(OC)c2)C(=O)N2C[C@@H](C)C[C@H]2C(=O)NC2(CC(C)(C)C2)C(=O)N(C)[C@@H](C2CCCC2)C(=O)N(C)[C@H](C(=O)N(C)CC)CC(=O)N1C [PP2701],A (a compound having 10 or more and less than 20 is denoted as A),A (a compound having 10 or more and less than 20 is denoted as A),,,
CCOC[C@H]1C(=O)N[C@@H]([C@@H](C)CC)C(=O)N(C)CC(=O)N(C)[C@H]2C/C=C\CCN(C2=O)[C@@H](Cc2ccc3c(c2)CCC3(F)F)C(=O)N(C)CC(=O)N[C@@H](CCc2ccc(C(F)(F)F)c(OC)c2)C(=O)N2C[C@@H](C)C[C@H]2C(=O)NC2(CC(C)(C)C2)C(=O)N(C)[C@@H](C2CCCC2)C(=O)N(C)[C@H](C(=O)N(C)CC)CC(=O)N1C [PP2704],B (a compound having 3 or more and less than 10 is denoted as B),B (a compound having 3 or more and less than 10 is denoted as B),,,
CCOC[C@H]1C(=O)N[C@@H]([C@@H](C)CC)C(=O)N(C2CC2)CC(=O)N(C)[C@H]2C/C=C\CCN(C2=O)[C@@H](Cc2ccc(C(F)(F)F)cc2)C(=O)N(C)CC(=O)N[C@@H](CCc2ccc(C(F)(F)F)c(OC)c2)C(=O)N2C[C@H](OCC)C[C@H]2C(=O)N(C)C2(CCC2)C(=O)N(C)[C@@H](C(CC)CC)C(=O)N(C)[C@H](C(=O)N(C)C)CC(=O)N1C [PP2315],,,A (a compound having 10 or more and less than 20 is denoted as A),A (a compound having 10 or more and less than 20 is denoted as A),
